Measurements as given in patent US12643906B2, “Fused aza-heterocyclic amide compound and use thereof” (CSPC ZHONGQI PHARMACEUTICAL TECHNOLOGY (SHIJIAZHUANG) CO., …, priority 2020, dated 2026).
pIC50: −log10 of the molar value. Like-named read-outs stand apart in the source and are kept apart here.

Experiments:
Ba/F3 ETV6-NTRK2 = molecular target: T1, Ba/F3 ETV6-NTRK2 (Homo sapiens, UniProt Q16620); experiment: In vitro cell proliferation inhibition (MTT); format: cell-based, murine; conditions: 72 h, read-out: IC50 Ba/F3 ETV6-NTRK2
T1 construct: fused on or other part: P41212 (Transcription factor ETV6)
Procedure: (§1) Cells in the logarithmic growth phase were harvested and counted using a […]. The cell suspension with a certain density was pipetted uniformly and seeded into a 96-well plate with each well of 100 μL, and shaken to make the cells uniformly disperse into the wells. 100 μL of compound solution with certain concentration gradient was added into each well, and 3 duplicate wells were set for each concentration. The plate was cultured in a CO2 incubator at 37° C. for 72 h. 20 μL of MTT working solution (5 mg/mL) was added into each well, and the plate was placed at 37° C. for 4 h, and centrifuged at 1000 rpm for 5 min by a plate centrifuge. After 180 μL of culture medium was discarded, the plate was added with 150 μL of DMSO, and mixed well with a microplate shaker, the plate bottom was wiped, and optical density (OD) at 550 nm was detected with a microplate reader.

Ba/F3 ETV6-NTRK3-G623R = molecular target: T2, Ba/F3 ETV6-NTRK3-G623R (Homo sapiens, UniProt Q16288, G623R, cells depend on it); experiment: In vitro cell proliferation inhibition (MTT); format: cell-based, murine; conditions: 72 h, read-out: IC50 Ba/F3 ETV6-NTRK3-G623R
T2 construct: fused on or other part: P41212 (Transcription factor ETV6)
Procedure: as §1

Ba/F3 LMNA-NTRK1-G595R = molecular target: T3, Ba/F3 LMNA-NTRK1-G595R (Homo sapiens, UniProt P04629, G595R, cells depend on it); experiment: In vitro cell proliferation inhibition (MTT); format: cell-based, murine; conditions: 72 h, read-out: IC50 Ba/F3 LMNA-NTRK1-G595R
T3 construct: fused on or other part: P02545 (Prelamin-A/C)
Procedure: as §1

Ba/F3 LMNA-NTRK1 = molecular target: T4, Ba/F3 LMNA-NTRK1 (Homo sapiens, UniProt P04629); experiment: In vitro cell proliferation inhibition (MTT); format: cell-based, murine; conditions: 72 h, read-out: IC50 Ba/F3 LMNA-NTRK1
T4 construct: fused on or other part: P02545 (Prelamin-A/C)
Procedure: as §1

Ba/F3 LMNA-NTRK1-G667C = molecular target: T5, Ba/F3 LMNA-NTRK1-G667C (Homo sapiens, UniProt P04629, G667C, cells depend on it); experiment: In vitro cell proliferation inhibition (MTT); format: cell-based, murine; conditions: 72 h, read-out: IC50 Ba/F3 LMNA-NTRK1-G667C
T5 construct: fused on or other part: P02545 (Prelamin-A/C)
Procedure: as §1

TRKB = molecular target: T6, TRKB (Homo sapiens, UniProt Q16620); experiment: HTRF kinase inhibition assay, TRKB; format: biochemical
T6 construct: purchased Bioduro
Procedure: (§2) The compound to be tested with a certain concentration gradient and an enzyme solution were successively added into a plate (kinase buffer (1× kinase buffer (Cisbio, Cat #62EZBFDD), pH 7.5; 5 mM MgCl2, 1 mM DTT) was added into negative control wells), and the compound plate was centrifuged at 1000 rpm for 30 seconds. The plate was sealed and incubated in a Constant Temperature Incubator at 25° C. for 30 min. A substrate solution containing TK-Sub-biotin (Cisbio, Cat #61TKOBL) and ATP (Sigma, Cat #R0441) was prepared, the substrate solution was added into a 384-well plate, and the plate was centrifuged at 1000 rpm for 30 seconds. The plate was sealed and incubated in a Constant Temperature Incubator at 25° C. for 60 min.
(§3) TK antibody and XL665 were diluted, mixed and added into the assay plate, and the plate was centrifuged at 1000 rpm for 30 seconds. The plate was sealed and incubated in a Constant Temperature incubator Incubator at 25° C. for 60 min. The assay plate was placed on an Envision reader for reading.
(§4) Data were fitted in XLFit excel add-in version 5.4.0.8 to obtain IC50 values.

TRKA = molecular target: T7, TRKA (Homo sapiens, UniProt P04629); experiment: HTRF kinase inhibition assay, TRKA; format: biochemical
T7 construct: purchased Bioduro
Procedure: as §2
as §3, with “reading. (HTRF 665/615 ratio: signal value at 665 nm/signal value at 615 nm) Inhibition=(rationegative control well−ratiocompound well)/(rationegative control well−ratioenzyme-free control well)×100% 1.3 Data Analysis and Curve Fitting” for “reading.”
as §4

ROS1 = molecular target: T8, ROS1 (Homo sapiens, UniProt P08922); experiment: Kinase inhibition assay with fluorescein labeled peptide, ROS1; format: biochemical
T8 construct: purchased Carna 08-163
Procedure: (§5) Compounds were diluted to a certain concentration in DMSO with 4-fold gradients. The compound with a certain concentration, an enzyme solution and DMSO were added into a 384-well plate, and the plate was incubated at room temperature for 10 min. […] The plate was subjected to reading.

[1] = test system: Ba/F3 LMNA-NTRK1-G595R model; conditions: gavage
Procedure: (§6) The cells in the logarithmic growth phase were collected and re-suspending in serum-free culture medium to make the cell concentration at […] cells/mL. The cell suspension was added with equal volume of Matrigel to make the final cell concentration at 3×10^7-5×10^7 cells/mL. The animal model was established by subcutaneously inoculating 0.1 mL of tumor cell suspension in the axilla of the forelimb of NuNu mice (female, 4-6 weeks, Beijing Vital River Laboratory Animal Technology Co., Ltd.) in an amount of 3×10^6-5×10^6 cells/mouse.
(§7) The maximum and the minimum tumor diameters of the xenografts in nude mice were measured using a vernier caliper, and the tumor volume (TV) was calculated according to the formula: V=½×a×b^2, where a and b represent the maximum and minimum diameters of the tumor mass, respectively. Nude mice with appropriate tumor volume were selected and the mice were evenly divided into 7 groups of 6 mice (100-200 mm^3) by tumor volume using a random number method.
(§8) Tumor diameters were measured twice weekly and tumor volume was calculated. […] (where Ti represents the mean tumor volume of a certain administration group on a certain day; TO represents the mean tumor volume of the administration group at the start of administration, Vi represents the mean tumor volume of the vehicle control group on a certain day (same day as Ti) and V0 represents the mean tumor volume of the vehicle control group at the start of administration); • Tumor inhibition rate: at the end of the test, the animals were executed by removing the cervical vertebrae.

[2] = test system: Ba/F3 LMNA-NTRK1-G667C model; conditions: 100 mg/kg, gavage
Procedure: as §6, §7, §8

TRKA(G595R) = molecular target: T9, TRKA(G595R) (Homo sapiens, UniProt P04629, G595R); experiment: HTRF kinase inhibition assay, TRKA(G595R); format: biochemical
T9 construct: purchased signalchem
Procedure: as §2
as §3, with “reading. (HTRF 665/615 ratio: signal value at 665 nm/signal value at 615 nm) Inhibition=(rationegative control well−ratiocompound well)/(rationegative control well−ratioenzyme-free control well)×100% 1.3 Data Analysis and Curve Fitting” for “reading.”
as §4

TRKC(G623R) = molecular target: T10, TRKC(G623R) (Homo sapiens, UniProt Q16288, G623R); experiment: HTRF kinase inhibition assay, TRKC(G623R); format: biochemical
T10 construct: purchased Bioduro
Procedure: as §2
as §3, with “reading. (HTRF 665/615 ratio: signal value at 665 nm/signal value at 615 nm) Inhibition=(rationegative control well−ratiocompound well)/(rationegative control well−ratioenzyme-free control well)×100% 1.3 Data Analysis and Curve Fitting” for “reading.”
as §4

Ba/F3 ETV6-NTRK3-G696A = molecular target: T11, Ba/F3 ETV6-NTRK3-G696A (Homo sapiens, UniProt Q16288, G696A, cells depend on it); experiment: In vitro cell proliferation inhibition (MTT); format: cell-based, murine; conditions: 72 h, read-out: IC50 Ba/F3 ETV6-NTRK3-G696A
T11 construct: fused on or other part: P41212 (Transcription factor ETV6)
Procedure: • Source of 6 kinds of cell lines for the test: KYinno Biotechnology (Beijing) Co., Ltd. • Cell type: murine B cells • Culture medium: RPMI-1640+10% FB S 2. Test Method
as §1

TRKA(G667C) = molecular target: T12, TRKA(G667C) (Homo sapiens, UniProt P04629, G667C); experiment: HTRF kinase inhibition assay, TRKA(G667C); format: biochemical
T12 construct: purchased signalchem
Procedure: as §2
as §3, with “reading. (HTRF 665/615 ratio: signal value at 665 nm/signal value at 615 nm) Inhibition=(rationegative control well−ratiocompound well)/(rationegative control well−ratioenzyme-free control well)×100% 1.3 Data Analysis and Curve Fitting” for “reading.”
as §4

ALK = molecular target: T13, ALK (Homo sapiens, UniProt Q9UM73); experiment: Kinase inhibition assay with fluorescein labeled peptide, ALK; format: biochemical
T13 construct: purchased Carna 08-105
Procedure: as §5

TRKC(G696A) = molecular target: T14, TRKC(G696A) (Homo sapiens, UniProt Q16288, G696A); experiment: HTRF kinase inhibition assay, TRKC(G696A); format: biochemical
T14 construct: purchased Bioduro
Procedure: as §2, §3, §4

TRKC = molecular target: T15, TRKC (Homo sapiens, UniProt Q16288); experiment: HTRF kinase inhibition assay, TRKC; format: biochemical
T15 construct: purchased Bioduro
Procedure: as §2
as §3, with “reading. (HTRF 665/615 ratio: signal value at 665 nm/signal value at 615 nm) Inhibition=(rationegative control well−ratiocompound well)/(rationegative control well−ratioenzyme-free control well)×100% 1.3 Data Analysis and Curve Fitting” for “reading.”
as §4

[3] = test system: tropomyosin receptor kinase; conditions: 46 evaluable patients, phase I and phase II clinical trials; cited from earlier work

O=C(Nc1ccc(C2CCN(C(=O)CO)CC2)cc1)c1cnn2ccc(N3C[C@@H](F)C[C@@H]3c3cc(F)ccc3F)nc12 [Compound 10, 5-((2R,4S)-2-(2,5-difluorophenyl)-4-fluoropyrrolidin-1-yl)-N-(4-(1-(2-hydroxyacetyl)piperidin-4-yl)phenyl)pyrazolo[1,5-a]pyrimidine-3-carboxamide]
GI50 (Ba/F3 ETV6-NTRK2): 0.977 nM | GI50 (Ba/F3 ETV6-NTRK3-G623R): 0.277 nM | GI50 (Ba/F3 LMNA-NTRK1-G595R): 0.095 nM | GI50 (Ba/F3 LMNA-NTRK1): 0.526 nM | GI50 (Ba/F3 LMNA-NTRK1-G667C): 0.536 nM | pIC50 (TRKB): 8.94 | pIC50 (TRKA): 9.49 | pIC50 (ROS1): 9.40 | Number of animals (Survival/total) ([1]; 50 mg/kg): (6/6) | Rate of weight gain (%) ([1]; 50 mg/kg): 13.47% | TGI (%) ([1]; 50 mg/kg): 134.7% | Tumor volume (mm^3) ([1]; 50 mg/kg): 20.0 ± 12.6 mm^3 | Tumor weight ([1]; 50 mg/kg): 0.01 ± 0.01 g | Tumor weight inhibition rate (%) ([1]; 50 mg/kg): 98.09% | Number of animals (Survival/total) ([1]; 100 mg/kg): (6/6) | Rate of weight gain (%) ([1]; 100 mg/kg): 4.36% | TGI (%) ([1]; 100 mg/kg): 132.5% | Tumor volume (mm^3) ([1]; 100 mg/kg): 25.8 ± 8.3 mm^3 | Tumor weight ([1]; 100 mg/kg): 0.02 ± 0.01 g | Tumor weight inhibition rate (%) ([1]; 100 mg/kg): 96.75% | Number of animals (Survival/total) [2]: (6/6) | Rate of weight gain (%) [2]: 5.75% | TGI (%) [2]: 111.6% | Tumor volume (mm^3) [2]: 91.6 ± 19.5 mm^3 | Tumor weight [2]: 0.12 ± 0.02 g | Tumor weight inhibition rate (%) [2]: 77.80% | pIC50 (TRKA(G595R)): > 9.77 | pIC50 (TRKC(G623R)): 9.09 | GI50 (Ba/F3 ETV6-NTRK3-G696A): 0.693 nM | pIC50 (TRKA(G667C)): 9.24 | pIC50 (ALK): 7.51 | pIC50 (TRKC(G696A)): 9.25 | pIC50 (TRKC): 8.98

O=C(Nc1cnn2ccc(N3CCC[C@@H]3c3cc(F)ccc3F)nc12)N1CC[C@H](O)C1 [LOXO-101, Larotrectinib]
GI50 (Ba/F3 ETV6-NTRK2): 15.1 nM | GI50 (Ba/F3 ETV6-NTRK3-G623R): 376 nM | Overall Response Rate (ORR) [3]: 78% | GI50 (Ba/F3 ETV6-NTRK3-G696A): 35.8 nM | pIC50 (ALK): < 6.00
